Counter-ions that a name gives are not always drawn. Like-named read-outs stand apart in the source and are kept apart here.
Legend:
MDBK line = test: MTT Cell Proliferation Assay, MDBK cells; format: cell-based, bovine
In short: (§1)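 Viability was measured by mitochondrial MTT reduction after cells were exposed to compound for 3 days in reduced-serum medium. Inhibition was calculated per plate against 0.5% DMSO controls.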

[1] = tested on: epithelial carcinoma A431 cell line; test: MTT Cell Proliferation Assay, A431 cells; format: cell-based; conditions: for MTT Assay IC50(A431/MDBK): ratio in parentheses: ratio MDBK IC50 / A431 IC50 (selectivity)
In short: as §1

EGFR = biological target: T1, EGFR (Homo sapiens, UniProt P00533); test: EGFR in-cell Western (ICW) screening protocol (EGFR inhibition assay); format: cell-based; set-up: ICW 1 / ICW 2 / ICW Avg: unit not given here; conditions: for ICW Avg / ICW 1 / ICW 2: ICW assay; for ICW Avg: average of runs 1 and 2; for ICW 1: run 1; for ICW 2: run 2; for ICW assay: Table 10
T1 construct: host or cells: A431
In short: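 Serum-starved A431 cells (2 h) were pretreated with compound for 4 h at 37° C, then stimulated with EGF (10 ng/ml final, or 6.6 or 12.5 ng/ml in some runs) for 10 min. After formaldehyde fixation, phospho-EGFR (Tyr1173, or Tyr1045 in some runs) and total EGFR were detected by in-cell Western immunostaining.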

[2] = Bos taurus, MDBK, MDBK cells, second value of cell, read-out: MTT Assay IC50(A431/MDBK): MDBK
[3] = Homo sapiens, A-431, A431 cells, first value of cell, read-out: MTT Assay IC50(A431/MDBK): A431
[4] = Bos taurus, MDBK, second value of 'a/b (c)', taken as MDBK cells, read-out: MTT Screen, second value of cell
[5] = Homo sapiens, A-431, first value of 'a/b (c)', taken as A431 cells, read-out: MTT Screen, first value of cell
[6] = Bos taurus, MDBK, 72 h, Table 10, second of x/y(ratio): MDBK, three day treatment, unit not printed (doses in μM), read-out: MTT assay (second value)
[7] = Homo sapiens, A-431, 72 h, Table 10, first of x/y(ratio): A431, three day treatment, unit not printed (doses in μM), read-out: MTT assay (first value)
[8] = % Inhibition of EGF dependent EGFR phosphorylation in A431 cells, compound 125 μM in assay

T1 sequence (P00533 25-1210): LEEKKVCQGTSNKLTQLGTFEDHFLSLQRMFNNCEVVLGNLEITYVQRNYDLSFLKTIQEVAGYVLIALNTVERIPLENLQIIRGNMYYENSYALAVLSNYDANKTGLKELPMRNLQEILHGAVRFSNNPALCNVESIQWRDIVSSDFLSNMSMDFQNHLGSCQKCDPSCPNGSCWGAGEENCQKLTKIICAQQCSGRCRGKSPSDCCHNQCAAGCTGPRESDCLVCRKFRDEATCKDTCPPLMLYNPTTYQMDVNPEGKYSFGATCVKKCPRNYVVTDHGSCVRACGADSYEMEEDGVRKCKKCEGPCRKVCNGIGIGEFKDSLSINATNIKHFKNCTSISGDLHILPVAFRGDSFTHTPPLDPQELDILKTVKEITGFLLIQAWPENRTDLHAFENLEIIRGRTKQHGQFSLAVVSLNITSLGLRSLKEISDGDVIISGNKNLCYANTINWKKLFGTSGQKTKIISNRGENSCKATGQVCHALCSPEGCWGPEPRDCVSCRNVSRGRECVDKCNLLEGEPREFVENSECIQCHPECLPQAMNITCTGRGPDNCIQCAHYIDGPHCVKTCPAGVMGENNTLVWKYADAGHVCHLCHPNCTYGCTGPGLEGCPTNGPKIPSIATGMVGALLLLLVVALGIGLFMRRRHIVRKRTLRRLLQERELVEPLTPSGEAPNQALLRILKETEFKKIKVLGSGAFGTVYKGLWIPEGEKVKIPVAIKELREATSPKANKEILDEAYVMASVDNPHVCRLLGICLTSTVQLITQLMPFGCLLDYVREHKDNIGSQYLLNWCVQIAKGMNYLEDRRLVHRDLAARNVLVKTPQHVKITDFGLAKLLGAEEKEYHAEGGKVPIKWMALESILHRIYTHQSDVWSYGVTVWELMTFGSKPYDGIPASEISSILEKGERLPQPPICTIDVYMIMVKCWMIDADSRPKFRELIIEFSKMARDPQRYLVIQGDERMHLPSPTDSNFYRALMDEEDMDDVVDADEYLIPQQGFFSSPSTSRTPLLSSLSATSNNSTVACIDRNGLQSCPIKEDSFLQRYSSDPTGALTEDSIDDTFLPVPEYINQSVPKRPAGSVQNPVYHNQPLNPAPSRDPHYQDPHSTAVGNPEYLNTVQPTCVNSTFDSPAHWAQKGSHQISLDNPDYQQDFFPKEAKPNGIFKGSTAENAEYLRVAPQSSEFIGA

## Cc1ccc2nc(Nc3nc(C(C)C)cc(=O)[nH]3)nc(C)c2c1 [12741 + TFA]
MDBK line; [2]
  IC50: 28 µM
[1]; [3]
  IC50: 63.2 µM
[1]
  MTT Assay IC50(A431/MDBK): ratio in parentheses: 0.44
EGFR
  ICW Avg: 33.57
  ICW 1: 42.10
  ICW 2: 25.04

## CCCC(=O)NC(=S)Nc1ccc(S(=O)(=O)NCCc2ccccc2)cc1 [AD4-10612]
MDBK line; [4]
  IC50: 13.2 µM
[1]; [5]
  IC50: 11.7 µM
EGFR
  ICW Screen (ICW Inhibition): 30.841

## CC(C)c1ccc(NC(=S)Nc2ccc(S(=O)(=O)Nc3cc(Cl)cc(Cl)c3)cc2)cc1 [AD4-12424]
MDBK line; [6]
  IC50: 4.73 µM
[1]; [7]
  IC50: 4.08 µM
EGFR; [8]
  ICW assay: 82.3761

## CC1CCc2cc(F)ccc2N1S(=O)(=O)c1ccc(NC(=S)Nc2ccc(F)cc2)cc1 (centres unmarked) [AD4-12850]
MDBK line; [6]
  IC50: 35.8 µM
[1]; [7]
  IC50: 31.8 µM
EGFR; [8]
  ICW assay: 42.2628

## CCOc1ccc2nc(Nc3nc(C)c(CCC(C)C)c(=O)[nH]3)nc(C)c2c1 [12684 + TFA]
MDBK line; [2]
  IC50: 19.5 µM
[1]; [3]
  IC50: 25.7 µM
[1]
  MTT Assay IC50(A431/MDBK): ratio in parentheses: 0.76
EGFR
  ICW Avg: 28.28
  ICW 1: 40.81
  ICW 2: 15.75

## Cc1cc(C)nc(NS(=O)(=O)c2ccc(NC(=S)NC(=O)COc3ccc(Br)cc3Cl)cc2)n1 [AD4-12158]
MDBK line; [4]
  IC50: 4.58 µM
[1]; [5]
  IC50: 5.01 µM
EGFR
  ICW Screen (ICW Inhibition): 36.727

## CN1CCN(S(=O)(=O)c2ccc(NC(=S)NC(=O)/C=C/c3cccs3)cc2)CC1 [AD4-12060]
MDBK line; [4]
  IC50: 40.5 µM
[1]; [5]
  IC50: 48.5 µM
EGFR
  ICW Screen (ICW Inhibition): 34.272

## CCc1cc2c(CN3CCN(c4ccc(OC)cc4)CC3)cc(=O)oc2cc1O [AD4-10171]
MDBK line; Bos taurus, MDBK, Table 11, second of x/y(ratio): MDBK, unit not printed (doses in μM), read-out: MTT Screen (second value)
  IC50: 21 µM
[1]; Homo sapiens, A-431, Table 11, first of x/y(ratio): A431, unit not printed (doses in μM), read-out: MTT Screen (first value)
  IC50: 16.5 µM
EGFR; Table 11, % Inhibition of EGF dependent EGFR phosphorylation in A431 cells, compound 125 μM in assay
  ICW Screen: 39.389

## Cc1ccc(SCc2cc(=O)[nH]c(Nc3nc(C)c4cccc(C)c4n3)n2)cc1 [11707 + TFA]
MDBK line; MDBK cells, second value of cell
  MTT Assay IC50(A431/MDBK): MDBK: non-convergent
[1]; [3]
  IC50: 15.7 µM
EGFR
  ICW Avg: 40.51
  ICW 1: 43.70
  ICW 2: 37.31

## CCOC(=O)c1c(N)nc(Nc2nc(C)c3cc(C)ccc3n2)nc1-c1ccccc1 [compound 12681]
MDBK line; MDBK cells, second value of cell, read-out: MTT Assay IC50(A431/MDBK): MDBK
  IC50: 25.4 µM
[1]; A431 cells, first value of cell, read-out: MTT Assay IC50(A431/MDBK): A431
  IC50: 15.6 µM
[1]
  MTT Assay IC50(A431/MDBK): ratio in parentheses: 1.63
EGFR
  ICW Avg: 89.48
  ICW 1: 89.93
  ICW 2: 89.02

## COc1ccccc1-c1cc(=O)[nH]c(Nc2nc(C)c3cc(C)c(C)cc3n2)n1 [11746 + TFA]
MDBK line; [2]
  IC50: 14.4 µM
[1]; [3]
  IC50: 33.5 µM
[1]
  MTT Assay IC50(A431/MDBK): ratio in parentheses: 0.43
EGFR
  ICW Avg: 25.68
  ICW 1: 29.51
  ICW 2: 21.86

## CN1CCN(S(=O)(=O)c2ccc(NC(=S)NC(=O)/C=C/c3ccccc3Cl)cc2)CC1 [AD4-12059]
MDBK line; [4]
  IC50: 37.7 µM
[1]; [5]
  IC50: 32.2 µM
EGFR
  ICW Screen (ICW Inhibition): 28.33

## CC(=O)c1ccc(NC(=S)Nc2ccc(S(=O)(=O)Nc3ccccc3C)cc2)cc1 [AD4-10700]
MDBK line; [6]
  IC50: 14.3 µM
[1]; [7]
  IC50: 14.7 µM
EGFR; [8]
  ICW assay: 52.5996

## Cc1ccc2c(O)nc(Nc3nc(C)cc(-c4ccccc4)n3)nc2c1 [12693 + TFA]
MDBK line; [2]
  IC50: 6.88 µM
[1]; [3]
  IC50: 9.01 µM
[1]
  MTT Assay IC50(A431/MDBK): ratio in parentheses: 0.76
EGFR
  ICW Avg: 57.18
  ICW 1: 40.36
  ICW 2: 74.00

## COc1ccc(NS(=O)(=O)c2ccc(NC(=S)NC(=O)COc3ccc(Cl)cc3C)cc2)cc1 [AD4-12196]
MDBK line; [4]
  IC50: 36.8 µM
[1]; [5]
  IC50: 18 µM
EGFR
  ICW Screen (ICW Inhibition): 34.379

## Cc1ccc(-c2cc(=O)[nH]c(Nc3nc(C)c4ccc(C)cc4n3)n2)cc1 [12604 + TFA]
MDBK line; [2]
  IC50: 30 µM
[1]; [3]
  IC50: 19.3 µM
[1]
  MTT Assay IC50(A431/MDBK): ratio in parentheses: 1.55
EGFR
  ICW Avg: 50.98
  ICW 1: 55.87
  ICW 2: 46.08

## COc1ccccc1NS(=O)(=O)c1ccc(NC(=S)Nc2ccc(OC)c(OC)c2)cc1 [AD4-12537]
MDBK line; [6]
  IC50: 38.6 µM
[1]; [7]
  IC50: 35.4 µM
EGFR; [8]
  ICW assay: 30.7051
